Laboratory results reported in patent publication US20120142646A1, “Novel Compounds 621” (priority 2006, published 2012).
Where a name gives a salt, the structure may show the parent alone.

Molecular target: T1, Adrenergic β2 (Homo sapiens, UniProt P07550)
T1 construct: Adherent H292 cells were removed from tissue culture flasks; endogenous in cells; host or cells: H292 cells
Test: Adrenergic β2 mediated cAMP production in H292 cells (AlphaScreen cAMP detection)
Type: cell-based
Parameters: key to β2 Int Act: fraction of formoterol maximum activity (formoterol = 1)
Settings: Intrinsic Activity as a fraction relative to the maximum activity determined for formoterol
Description: Adrenergic β2 Mediated cAMP Production
H292 cells were grown in 225 cm2 flasks incubator at 37° C., 5% CO2 in RPMI medium containing, 10% (v/v) FBS (foetal bovine serum) and 2 mM L-glutamine.
Adherent H292 cells were removed from tissue culture flasks by treatment with Accutase™ cell detachment solution for 15 minutes. Flasks were incubated for 15 minutes in a humidified incubator at 37° C., 5% CO2. Detached cells were re-suspended in RPMI media (containing 10% (v/v) FBS and 2 mM L-glutamine) at 1×10^6 cells per mL. 10000 cells in 100 μL were added to each well of a tissue-culture-treated 96-well plate and the cells incubated overnight in a humidified incubator at 37° C., 5% CO2. The culture media was removed and cells were washed twice with 100 μL assay buffer and replaced with 50 μL assay buffer (HBSS solution containing 10 mM HEPES pH7.4 and 5 mM glucose). Cells were rested at room temperature for 20 minutes after which time 25 μL of rolipram (1.2 mM made up in assay buffer containing 2.4% (v/v) dimethylsulphoxide) was added. Cells were incubated with rolipram for 10 minutes after which time test compounds were added and the cells were incubated for 60 minutes at room temperature. The final rolipram concentration in the assay was 300 μM and final vehicle concentration was 1.6% (v/v) dimethylsulphoxide. The reaction was stopped by removing supernatants, washing once with 100 μL assay buffer and replacing with 50 μL lysis buffer. The cell monolayer was frozen at −80° C. for 30 minutes (or overnight).
AlphaScreen™ cAMP Detection
The concentration of cAMP (cyclic adenosine monophosphate) in the cell lysate was determined using AlphaScreen™ methodology. The frozen cell plate was thawed for 20 minutes on a plate shaker then 10 μL of the cell lysate was transferred to a 96-well white plate. 40 μL of mixed AlphaScreen™ detection beads pre-incubated with biotinylated cAMP, was added to each well and the plate incubated at room temperature for 10 hours in the dark. The AlphaScreen™ signal was measured using an EnVision spectrophotometer (Perkin-Elmer Inc.) with the recommended manufacturer's settings. cAMP concentrations were determined by reference to a calibration curve determined in the same experiment using standard cAMP concentrations. Concentration response curves for agonists were constructed and data was fitted to a four parameter logistic equation to determine both the pEC50 and Intrinsic Activity. Intrinsic Activity was expressed as a fraction relative to the maximum activity determined for formoterol in each experiment.

T1 sequence (P07550 whole entry): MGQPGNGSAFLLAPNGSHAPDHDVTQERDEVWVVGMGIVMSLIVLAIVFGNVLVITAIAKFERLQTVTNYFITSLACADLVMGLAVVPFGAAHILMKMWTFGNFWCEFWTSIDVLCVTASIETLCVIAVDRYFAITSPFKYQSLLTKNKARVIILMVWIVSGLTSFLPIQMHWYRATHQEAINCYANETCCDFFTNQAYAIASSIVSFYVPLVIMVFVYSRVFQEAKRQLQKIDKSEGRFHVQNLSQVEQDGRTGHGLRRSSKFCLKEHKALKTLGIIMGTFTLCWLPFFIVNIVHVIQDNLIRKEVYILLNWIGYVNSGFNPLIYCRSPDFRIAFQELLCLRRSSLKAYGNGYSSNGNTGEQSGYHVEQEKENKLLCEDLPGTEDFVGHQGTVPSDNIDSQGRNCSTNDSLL

| SMILES | β2 Int Act |
| --- | --- |
| CCCCN(CCNCCc1ccc(O)c2[nH]c(=O)ccc12)C(=O)CCOCCc1ccccc1 [Example 1, N-Butyl-N-(2-(2-(8-hydroxy-2-oxo-1,2-dihydroquinolin-5-yl)ethylamino)ethyl)-3-phenethoxypropanamide hydrochloride] | 0.9 |
| O=C(CCOCCc1ccccc1)N(CCNCCc1ccc(O)c2[nH]c(=O)ccc12)C1CCCCC1 [Example 2, N-Cyclohexyl-N-(2-(2-(8-hydroxy-2-oxo-1,2-dihydroquinolin-5-yl)ethylamino)ethyl)-3-phenethoxypropanamide] | 0.93 |
| O=C(CCNCCc1cccc(Cl)c1)N(CCNCCc1ccc(O)c2[nH]c(=O)ccc12)C1CCCCCC1 [Example 3, 3-(3-Chlorophenethylamino)-N-cycloheptyl-N-(2-(2-(8-hydroxy-2-oxo-1,2-dihydroquinolin-5-yl)ethylamino)ethyl)propanamide bis(trifluoroacetate)] | 0.82 |
| O=C(CCNCCc1ccc(Cl)cc1)N(CCNCCc1ccc(O)c2[nH]c(=O)ccc12)C1CCCCCC1 [Example 4, 3-(4-Chlorophenethylamino)-N-cycloheptyl-N-(2-(2-(8-hydroxy-2-oxo-1,2-dihydroquinolin-5-yl)ethylamino)ethyl)propanamide bis(trifluoroacetate)] | 0.79 |
| O=C(CCNCCc1cccc(F)c1)N(CCNCCc1ccc(O)c2[nH]c(=O)ccc12)C1CCCCCC1 [Example 5, N-Cycloheptyl-3-(3-fluorophenethylamino)-N-(2-(2-(8-hydroxy-2-oxo-1,2-dihydroquinolin-5-yl)ethylamino)ethyl)propanamide bis(trifluoroacetate)] | 0.82 |
| O=C(CCNCCc1ccc(F)cc1)N(CCNCCc1ccc(O)c2[nH]c(=O)ccc12)C1CCCCCC1 [Example 6, N-Cycloheptyl-3-(4-fluorophenethylamino)-N-(2-(2-(8-hydroxy-2-oxo-1,2-dihydroquinolin-5-yl)ethylamino)ethyl)propanamide bis(trifluoroacetate)] | 0.65 |
| O=C(CCNCCc1ccccc1)N(CCNCCc1ccc(O)c2[nH]c(=O)ccc12)C1CCCCCC1 [Example 7, N-Cycloheptyl-N-(2-(2-(8-hydroxy-2-oxo-1,2-dihydroquinolin-5-yl)ethylamino)ethyl)-3-(phenethylamino)propanamide bis(trifluoroacetate)] | 0.76 |
| Cc1cccc(CCNCCC(=O)N(CCNCCc2ccc(O)c3[nH]c(=O)ccc23)C2CCCCCC2)c1 [Example 8, N-Cycloheptyl-N-(2-(2-(8-hydroxy-2-oxo-1,2-dihydroquinolin-5-yl)ethylamino)ethyl)-3-(3-methylphenethylamino)propanamide bis(trifluoroacetate)] | 0.79 |
| C[C@H](CNCCC(=O)N(CCNCCc1ccc(O)c2[nH]c(=O)ccc12)C1CCCCCC1)c1ccccc1 [Example 9, (S)—N-Cycloheptyl-N-(2-(2-(8-hydroxy-2-oxo-1,2-dihydroquinolin-5-yl)ethylamino)ethyl)-3-(2-phenylpropylamino)propanamide bis(trifluoroacetate)] | 0.91 |
| O=C(CCNCCc1cc(F)cc(F)c1)N(CCNCCc1ccc(O)c2[nH]c(=O)ccc12)C1CCCCCC1 [Example 10, N-Cycloheptyl-3-(3,5-difluorophenethylamino)-N-(2-(2-(8-hydroxy-2-oxo-1,2-dihydroquinolin-5-yl)ethylamino)ethyl)propanamide bis(trifluoroacetate)] | 0.85 |
| CCOc1cccc(CCNCCC(=O)N(CCNCCc2ccc(O)c3[nH]c(=O)ccc23)C2CCCCCC2)c1 [Example 11, N-Cycloheptyl-3-(3-ethoxyphenethylamino)-N-(2-(2-(8-hydroxy-2-oxo-1,2-dihydroquinolin-5-yl)ethylamino)ethyl)propanamide bis(trifluoroacetate)] | 0.65 |
| O=C(CCNCCc1cccc(-c2ccccc2)c1)N(CCNCCc1ccc(O)c2[nH]c(=O)ccc12)C1CCCCCC1 [Example 12, 3-(2-(Biphenyl-3-yl)ethylamino)-N-cycloheptyl-N-(2-(2-(8-hydroxy-2-oxo-1,2-dihydroquinolin-5-yl)ethylamino)ethyl)propanamide bis(trifluoroacetate)] | 0.67 |
| O=C(CCNCCc1cccc(Cl)c1)N(CCNCCc1ccc(O)c2[nH]c(=O)ccc12)C1CCCCC1 [Example 13, 3-(3-Chlorophenethylamino)-N-cyclohexyl-N-(2-(2-(8-hydroxy-2-oxo-1,2-dihydroquinolin-5-yl)ethylamino)ethyl)propanamide bis(trifluoroacetate)] | 0.86 |
| O=C(CCNCCc1ccc(Cl)cc1)N(CCNCCc1ccc(O)c2[nH]c(=O)ccc12)C1CCCCC1 [Example 14, 3-(4-Chlorophenethylamino)-N-cyclohexyl-N-(2-(2-(8-hydroxy-2-oxo-1,2-dihydroquinolin-5-yl)ethylamino)ethyl)propanamide bis(trifluoroacetate)] | 0.88 |
| O=C(CCNCCc1cc(F)cc(F)c1)N(CCNCCc1ccc(O)c2[nH]c(=O)ccc12)C1CCCCC1 [Example 15, N-Cyclohexyl-3-(3,5-difluorophenethylamino)-N-(2-(2-(8-hydroxy-2-oxo-1,2-dihydroquinolin-5-yl)ethylamino)ethyl)propanamide bis(trifluoroacetate)] | 0.88 |
| O=C(CCNCCc1ccc(F)c(F)c1)N(CCNCCc1ccc(O)c2[nH]c(=O)ccc12)C1CCCCC1 [Example 16, N-Cyclohexyl-3-(3,4-difluorophenethylamino)-N-(2-(2-(8-hydroxy-2-oxo-1,2-dihydroquinolin-5-yl)ethylamino)ethyl)propanamide bis(trifluoroacetate)] | 0.85 |
| O=C(CCNCCc1cc(F)ccc1F)N(CCNCCc1ccc(O)c2[nH]c(=O)ccc12)C1CCCCC1 [Example 17, N-Cyclohexyl-3-(2,5-difluorophenethylamino)-N-(2-(2-(8-hydroxy-2-oxo-1,2-dihydroquinolin-5-yl)ethylamino)ethyl)propanamide bis(trifluoroacetate)] | 0.93 |
| O=C(CCNCCc1cccc(F)c1F)N(CCNCCc1ccc(O)c2[nH]c(=O)ccc12)C1CCCCC1 [Example 18, N-Cyclohexyl-3-(2,3-difluorophenethylamino)-N-(2-(2-(8-hydroxy-2-oxo-1,2-dihydroquinolin-5-yl)ethylamino)ethyl)propanamide bis(trifluoroacetate)] | 0.95 |
| O=C(CCNCCc1cccc(F)c1)N(CCNCCc1ccc(O)c2[nH]c(=O)ccc12)C1CCCCC1 [Example 19, N-Cyclohexyl-3-(3-fluorophenethylamino)-N-(2-(2-(8-hydroxy-2-oxo-1,2-dihydroquinolin-5-yl)ethylamino)ethyl)propanamide] | 0.87 |
| O=C1Cc2c(CCNCCN(C(=O)CCNCCc3cccc(F)c3)C3CCCCC3)ccc(O)c2N1 [Example 20, N-Cyclohexyl-3-(3-fluorophenethylamino)-N-(2-(2-(7-hydroxy-2-oxoindolin-4-yl)ethylamino)ethyl)propanamide dihydrobromide] | 0.78 |
| O=CNc1cc(CCNCCN(C(=O)CCNCCc2ccccc2)C2CCCCC2)ccc1O [Example 21, N-Cyclohexyl-N-(2-(3-formamido-4-hydroxyphenethylamino)ethyl)-3-(phenethylamino)propanamide] | 0.83 |
| O=C1COc2c(CCNCCN(C(=O)CCNCCc3ccccc3)C3CCCCC3)ccc(O)c2N1 [Example 23, N-Cyclohexyl-N-(2-(2-(5-hydroxy-3-oxo-3,4-dihydro-2H-benzo[b][1,4]oxazin-8-yl)ethylamino)ethyl)-3-(phenethylamino)propanamide bis(trifluoroacetate)] | 0.79 |
| O=C1COc2c(CCNCCN(C(=O)CCNCCc3ccccc3)C3CCCCCC3)ccc(O)c2N1 [Example 24, N-Cycloheptyl-N-(2-(2-(5-hydroxy-3-oxo-3,4-dihydro-2H-benzo[b][1,4]oxazin-8-yl)ethylamino)ethyl)-3-(phenethylamino)propanamide bis(trifluoroacetate)] | 0.85 |
| CCCC[C@@H](C)N(CCNCCc1ccc(O)c2c1OCC(=O)N2)C(=O)CCNCCc1ccccc1 [Example 25, (R)—N-(Hexan-2-yl)-N-(2-(2-(5-hydroxy-3-oxo-3,4-dihydro-2H-benzo[b][1,4]oxazin-8-yl)ethylamino)ethyl)-3-(phenethylamino)propanamide bis(trifluoroacetate)] | 0.9 |
